Molecular target: EGFR WT (Homo sapiens (Human), UniProt P00533)
Experiment: ErbB enzyme assay (CisBio HTRF-KinEASE-TK), EGFR WT
Assay type: biochemical
Conditions: ATP at Km (25 μM), 1 h incubation
Procedure, shortened: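 Compounds, serially diluted three-fold, were incubated with enzyme for 1 h at ambient temperature. Detection reagents were then added for a further hour, and the 655/620 nm HTRF ratio was normalised to uninhibited and pre-quenched controls. IC50 was fitted with a four-parameter logistic model.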

Chain of EGFR WT (P00533 25-1210): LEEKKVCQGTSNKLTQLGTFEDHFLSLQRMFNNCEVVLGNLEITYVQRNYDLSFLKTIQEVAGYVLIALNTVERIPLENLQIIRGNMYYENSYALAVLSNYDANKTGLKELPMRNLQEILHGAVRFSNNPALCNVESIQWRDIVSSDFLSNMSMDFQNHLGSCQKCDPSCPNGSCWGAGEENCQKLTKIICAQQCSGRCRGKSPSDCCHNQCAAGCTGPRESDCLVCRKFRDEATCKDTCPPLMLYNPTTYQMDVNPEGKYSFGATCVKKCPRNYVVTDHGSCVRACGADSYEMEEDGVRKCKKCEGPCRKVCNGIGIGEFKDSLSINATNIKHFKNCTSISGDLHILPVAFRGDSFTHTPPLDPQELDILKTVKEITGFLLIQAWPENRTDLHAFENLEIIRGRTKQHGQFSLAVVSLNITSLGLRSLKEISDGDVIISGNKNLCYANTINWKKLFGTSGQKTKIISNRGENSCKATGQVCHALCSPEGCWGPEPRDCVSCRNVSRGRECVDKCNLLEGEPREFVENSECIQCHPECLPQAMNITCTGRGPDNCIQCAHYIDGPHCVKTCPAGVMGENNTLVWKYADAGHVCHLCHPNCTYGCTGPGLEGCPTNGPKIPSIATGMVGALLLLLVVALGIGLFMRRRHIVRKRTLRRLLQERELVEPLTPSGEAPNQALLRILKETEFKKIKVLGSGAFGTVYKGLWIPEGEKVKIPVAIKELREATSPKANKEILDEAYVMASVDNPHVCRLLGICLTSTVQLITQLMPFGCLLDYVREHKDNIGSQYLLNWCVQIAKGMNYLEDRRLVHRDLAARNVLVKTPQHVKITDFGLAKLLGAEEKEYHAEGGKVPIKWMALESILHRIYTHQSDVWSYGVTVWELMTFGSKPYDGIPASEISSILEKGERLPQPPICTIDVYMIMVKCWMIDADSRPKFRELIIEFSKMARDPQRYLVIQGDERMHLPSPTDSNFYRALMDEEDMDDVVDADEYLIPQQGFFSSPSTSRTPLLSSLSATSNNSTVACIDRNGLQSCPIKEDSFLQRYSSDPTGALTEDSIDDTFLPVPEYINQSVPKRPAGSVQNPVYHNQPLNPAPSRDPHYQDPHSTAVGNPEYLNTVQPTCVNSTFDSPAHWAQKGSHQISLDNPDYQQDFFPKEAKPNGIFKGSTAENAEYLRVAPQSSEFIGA

IC50 [nM] | Structure (SMILES)
100 to 500 | C=CC(=O)N1CC[C@@H](N(C)c2ncc3ncnc(Nc4ccc(Oc5ccc6c(c5)nnn6C)c(C)c4)c3n2)C1 [Compound 128, (R)-1-(3-(methyl(8-((3-methyl-4-((1-methyl-1H-benzo[d][1,2,3]triazol-5-yl)oxy)phenyl)amino)pyrimido[5,4-d]pyrimidin-2-yl)amino)pyrrolidin-1-yl)prop-2-en-1-one]
< 50 | C=CC(=O)N1CCN(c2ncc3ncnc(Nc4ccc(Oc5cc(C)c6c(c5)nnn6C)c(C)c4)c3n2)CC1 [Compound 130, 1-(4-(8-((4-((1,7-dimethyl-1H-benzo[d][1,2,3]triazol-5-yl)oxy)-3-methylphenyl)amino)pyrimido[5,4-d]pyrimidin-2-yl)piperazin-1-yl)prop-2-en-1-one]
< 50 | C=CC(=O)N1CC[C@H](N(C)c2ncc3ncnc(Nc4ccc(Oc5ccc6c(c5)nnn6C)c(C)c4)c3n2)C1 [Compound 131, (S)-1-(3-(methyl(8-((3-methyl-4-((1-methyl-1H-benzo[d][1,2,3]triazol-5-yl)oxy)phenyl)amino)pyrimido[5,4-d]pyrimidin-2-yl)amino)pyrrolidin-1-yl)prop-2-en-1-one]
100 to 500 | C=CC(=O)N1CCN(c2ncc3ncnc(Nc4ccc(Oc5cc6nnn(C)c6cc5C)c(C)c4)c3n2)CC1 [Compound 136, 1-(4-(8-((4-((1,6-dimethyl-1H-benzo[d][1,2,3]triazol-5-y1)oxy)-3-methylphenyl)amino)pyrimido[5,4-d]pyrimidin-2-yl)piperazin-1-yl)prop-2-en-1-one]
100 to 500 | C=CC(=O)N1CCN(c2ncc3ncnc(Nc4ccc(Oc5cc6nnn(C)c6c(C)c5F)c(C)c4)c3n2)CC1 [Compound 141, 1-(4-(8-((4-((6-fluoro-1,7-dimethyl-1H-benzo[d][1,2,3]triazol-5-yl)oxy)-3-methylphenyl)amino)pyrimido[5,4-d]pyrimidin-2-yl)piperazin-1-yl)prop-2-en-1-one]
100 to 500 | C=CC(=O)NC1CC(N(C)c2ncc3ncnc(Nc4ccc(Oc5ccc6c(c5)nnn6C)c(C)c4)c3n2)C1 (centres unmarked) [Compound 142, N-(3-(methyl(8-((3-methyl-4-((1-methyl-1H-benzo[d][1,2,3]triazol-5-yl)oxy)phenyl)amino)pyrimido [5,4-d]pyrimidin-2-yl)amino)cyclobutyl)acrylamide]
< 50 | C=CC(=O)N[C@]1(C)CCN(c2ncc3ncnc(Nc4ccc(Oc5ccc6c(c5)nnn6C)c(C)c4)c3n2)C1 [Compound 144, (R)-N-(3-methyl-1-(8-((3-methyl-4-((1-methyl-1H-benzo[d][1,2,3]triazol-5-yl)oxy)phenyl)amino)pyrimido[5,4-d]pyrimidin-2-yl)pyrrolidin-3-yl)acrylamide]
100 to 500 | C=CC(=O)N[C@@]1(C)CCN(c2ncc3ncnc(Nc4ccc(Oc5ccc6c(c5)nnn6C)c(C)c4)c3n2)C1 [Compound 145, (S)-N-(3-methyl-1-(8-((3-methyl-4-((1-methyl-1H-benzo[d][1,2,3]triazol-5-yl)oxy)phenyl)amino)pyrimido[5,4-d]pyrimidin-2-yl)pyrrolidin-3-yl)acrylamide]
500 to 1000 | C=CC(=O)N[C@@]1(C)CCCN(c2ncc3ncnc(Nc4ccc(Oc5ccc6c(c5)nnn6C)c(C)c4)c3n2)C1 [Compound 146, (S)-N-(3-methyl-1-(8-((3-methyl-4-((1-methyl-1H-benzo[d][1,2,3]triazol-5-yl)oxy)phenyl)amino)pyrimido[5,4-d]pyrimidin-2-yl)piperidin-3-yl)acrylamide]
100 to 500 | C=CC(=O)N[C@@H]1CCN(c2ncc3ncnc(Nc4ccc(Oc5ccc6c(c5)nnn6C)c(C)c4)c3n2)C1 [Compound 153, (R)-N-(1-(8-((3-methyl-4-((1-methyl-1H-benzo[d][1,2,3]triazol-5-yl)oxy)phenyl)amino)pyrimido [5,4-d]pyrimidin-2-yl)pyrrolidin-3-yl)acrylamide]
100 to 500 | C=CC(=O)N[C@H]1CCN(c2ncc3ncnc(Nc4ccc(Oc5ccc6c(c5)nnn6C)c(C)c4)c3n2)C1 [Compound 154, (S)-N-(1-(8-((3-methyl-4-((1-methyl-1H-benzo[d][1,2,3]triazol-5-yl)oxy)phenyl)amino)pyrimido [5,4-d]pyrimidin-2-yl)pyrrolidin-3-yl)acrylamide]
50 to 100 | C=CC(=O)N1CCN(c2ncc3ncnc(Nc4ccc(Oc5cc(F)c6c(c5)ncn6C)c(C)c4)c3n2)C[C@H]1C [Compound 159, (R)-1-(4-(8-((4-((7-fluoro-1-methyl-1H-benzo[d]imidazol-5-yl)oxy)-3-methylphenyl)amino)pyrimido[5,4-d]pyrimidin-2-yl)-2-methylpiperazin-1-yl)prop-2-en-1-one]
< 50 | C=CC(=O)N1CCN(c2ncc3ncnc(Nc4ccc(Oc5cc(F)c6c(c5)ncn6C)c(C)c4F)c3n2)C[C@H]1CC [Compound 160, (R)-1-(2-ethyl-4-(8-((2-fluoro-4-((7-fluoro-1-methyl-1H-benzo[d]imidazol-5-yl)oxy)-3-methylphenyl)amino)pyrimido[5,4-d]pyrimidin-2-yl)piperazin-1-yl)prop-2-en-1-one]
< 50 | C=CC(=O)N[C@]1(C)CCN(c2ncc3ncnc(Nc4ccc(Oc5ccc6c(c5)nnn6C)c(C)c4F)c3n2)C1 [Compound 161, (R)-N-(1-(8-((2-fluoro-3-methyl-4-((1-methyl-1H-benzo[d][1,2,3]triazol-5-yl)oxy)phenyl)amino)pyrimido[5,4-d]pyrimidin-2-yl)-3-methylpyrrolidin-3-yl)acrylamide]
100 to 500 | C=CC(=O)N1CCN(c2ncc3ncnc(Nc4ccc(Oc5ccc6c(c5)ncn6C(F)F)c(C)c4)c3n2)C[C@H]1C [Compound 162, (R)-1-(4-(8-((4-((1-(difluoromethyl)-1H-benzo[d]imidazol-5-yl)oxy)-3-methylphenyl)amino)pyrimido[5,4-d]pyrimidin-2-y1)-2-methylpiperazin-1-yl)prop-2-en-1-one]
100 to 500 | C=CC(=O)N1CCN(c2ncc3ncnc(Nc4ccc(Oc5cc(F)c6c(c5)ncn6C)c(C)c4)c3n2)C[C@H]1CC [Compound 163, (R)-1-(2-ethyl-4-(8-((4-((7-fluoro-1-methyl-1H-benzo[d]imidazol-5-yl)oxy)-3-methylphenyl)amino)pyrimido[5,4-d]pyrimidin-2-yl)piperazin-1-yl)prop-2-en-1-one]
≥ 1000 | C=CC(=O)N1CCCN(c2ncc3ncnc(Nc4ccc(Oc5ccc6c(c5)nnn6C)c(C)c4)c3n2)C[C@@H]1C [Compound 165, (S)-1-(2-methyl-4-(8-((3-methyl-4-((1-methyl-1H-benzo[d][1,2,3]triazol-5-yl)oxy)phenyl)amino)pyrimido[5,4-d]pyrimidin-2-y1)-1,4-diazepan-1-yl)prop-2-en-1-one]
500 to 1000 | C=CC(=O)N[C@H]1CCCN(c2ncc3ncnc(Nc4ccc(Oc5ccc6c(c5)nnn6C)c(C)c4F)c3n2)CC1 [Compound 168, (S)-N-(1-(8-((2-fluoro-3-methyl-4-((1-methyl-1H-benzo[d][1,2,3]triazol-5-yl)oxy)phenyl)amino)pyrimido[5,4-d]pyrimidin-2-yl)azepan-4-yl)acrylamide]
50 to 100 | C=CC(=O)N1CCN(c2ncc3ncnc(Nc4ccc(Oc5cc(F)c6c(c5)nnn6C)c(C)c4)c3n2)C[C@H]1C [Compound 171, (R)-1-(4-(8-((4-((7-fluoro-1-methyl-1H-benzo[d][1,2,3]triazol-5-yl)oxy)-3-methylphenyl)amino)pyrimido[5,4-d]pyrimidin-2-y1)-2-methylpiperazin-1-yl)prop-2-en-1-one]
≥ 1000 | C=CC(=O)N[C@@H]1CCCN(c2ncc3ncnc(Nc4ccc(Oc5ccc6c(c5)nnn6C)c(C)c4F)c3n2)CC1 [Compound 172, (R)-N-(1-(8-((2-fluoro-3-methyl-4-((1-methyl-1H-benzo[d][1,2,3]triazol-5-yl)oxy)phenyl)amino)pyrimido[5,4-d]pyrimidin-2-yl)azepan-4-yl)acrylamide]
< 50 | C=CC(=O)N[C@@H]1CCCN(c2ncc3ncnc(Nc4ccc(Oc5cc(F)c6c(c5)nnn6C)c(C)c4F)c3n2)C1 [Compound 178, (R)-N-(1-(8-((2-fluoro-4-((7-fluoro-1-methyl-1H-benzo[d][1,2,3]triazol-5-yl)oxy)-3-methylphenyl)amino)pyrimido[5,4-d]pyrimidin-2-yl)piperidin-3-yl)acrylamide]
100 to 500 | C=CC(=O)N1CCN(c2ncc3ncnc(Nc4ccc(Oc5cc(F)c6c(c5)ncn6C)c(C)c4)c3n2)CC[C@@H]1C [Compound 179, (S)-1-(4-(8-((4-((7-fluoro-1-methyl-1H-benzo[d]imidazol-5-yl)oxy)-3-methylphenyl)amino)pyrimido[5,4-d]pyrimidin-2-y1)-7-methyl-1,4-diazepan-1-yl)prop-2-en-1-one]
< 50 | C=CC(=O)N1CCN(c2ncc3ncnc(Nc4ccc(Oc5cc(F)c6c(c5)ncn6C)c(C)c4F)c3n2)CC[C@@H]1C [Compound 181, (S)-1-(4-(8-((2-fluoro-4-((7-fluoro-1-methyl-1H-benzo[d]imidazol-5-yl)oxy)-3-methylphenyl)amino)pyrimido[5,4-d]pyrimidin-2-y1)-7-methyl-1,4-diazepan-1-yl)prop-2-en-1-one]
500 to 1000 | C=CC(=O)N1CCN(c2ncc3ncnc(Nc4ccc(Oc5cc6ncnn6cc5C)c(C)c4)c3n2)C[C@H]1C [Compound 182]
≥ 1000 | C=CC(=O)N1[C@H](C)CN(c2ncc3ncnc(Nc4ccc(Oc5ccc6c(c5)nnn6C)c(C)c4)c3n2)C[C@H]1C [Compound 183, 1-((2R,6R)-2,6-dimethyl-4-(8-((3-methyl-4-((1-methyl-1H-benzo[d][1,2,3]triazol-5-yl)oxy)phenyl)amino)pyrimido[5,4-d]pyrimidin-2-yl)piperazin-1-yl)prop-2-en-1-one]
≥ 1000 | C=CC(=O)N1[C@@H](C)CN(c2ncc3ncnc(Nc4ccc(Oc5ccc6c(c5)nnn6C)c(C)c4)c3n2)C[C@@H]1C [Compound 184, 1-((2S,6S)-2,6-dimethyl-4-(8-((3-methyl-4-((1-methyl-1H-benzo[d][1,2,3]triazol-5-yl)oxy)phenyl)amino)pyrimido[5,4-d]pyrimidin-2-yl)piperazin-1-yl)prop-2-en-1-one]

— patent publication US20250129078A1, “ERBB2 INHIBITORS” (Cogent Biosciences, Inc., priority 2023, published 2025)
